Earlier results as cited in patent US9763453B2, “Antimicrobial coating for inhibition of bacterial adhesion and biofilm formation” (Bacterin International, Inc., priority 2004, dated 2017).

Conditions: aqueous solutions

[Ag][I] [silver iodide]
Ksp: ~10^−18
